These results are taken from publication PMC9667776 (RSC Medicinal Chemistry, 2022).

One test concerns 2-epimerase. Format: binding, B. anthracis.
The target of a further test is PAK4 (Homo sapiens, UniProt O96013, L310A). The class given is binding.
Sequence of PAK4 (O96013 300-591 L310A limits assumed): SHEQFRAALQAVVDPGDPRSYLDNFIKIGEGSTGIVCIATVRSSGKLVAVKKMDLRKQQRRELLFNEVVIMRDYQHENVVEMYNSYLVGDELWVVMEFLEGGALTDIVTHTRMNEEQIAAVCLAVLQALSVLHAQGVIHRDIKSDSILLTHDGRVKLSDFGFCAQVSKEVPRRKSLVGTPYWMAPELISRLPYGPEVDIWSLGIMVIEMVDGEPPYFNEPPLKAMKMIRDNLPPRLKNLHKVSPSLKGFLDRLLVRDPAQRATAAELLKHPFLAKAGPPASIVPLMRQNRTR

As to `O=S(=O)(CCCn1cc(CCNS(=O)(=O)c2ccc(Br)cc2Cl)nn1)Nc1ccc(Nc2ccc(C(F)(F)F)nn2)cc1` [compound 4], the “competition with UDP-GlcNAc by LO-NMR” value with 2-epimerase is recorded as “competitive with UDP-GlcNAc”.
For `CNC(=O)c1cnn2ccc(C#N)cc12` [compound 5], the “binding by competitive LO-NMR” value at PAK4 is given as “consistent with binding to the ATP-binding site”.
